Source: article PMC9686516, “Pharmacokinetic Characteristics of Nebulized Colistimethate Sodium Using Two Different Types of Nebulizers in Critically Ill Patients with Ventilator-Associated Respiratory Infections” (Antibiotics, 2022)

Conditions: in vivo
Protocol: Subjects were medically followed during the nebulization phase and the post-nebulization period for the development of side effects, especially those related to the respiratory system. In cases of significant hypoxemia and/or bronchospasm, the nebulization and lavage processes were suspended, and the patient was treated as clinically indicated.

colistimethate sodium [CMS]
deterioration of oxygenation during the nebulization: no instances of clinically important deterioration of oxygenation
